In ChEMBL document CHEMBL1697681, “Predicting phospholipidosis using machine learning” (Mol Pharm, 2010):

System: Phospholipidosis
Experiment: Literature-mined public compounds from Lowe et al phospholipidosis modelling dataset

SMILES	Phospholipidosis
Cc1ccc(C(=O)Nc2ccc(S(=O)(=O)O)c3cc(S(=O)(=O)O)cc(S(=O)(=O)O)c23)cc1NC(=O)c1cccc(NC(=O)Nc2cccc(C(=O)Nc3cc(C(=O)Nc4ccc(S(=O)(=O)O)c5cc(S(=O)(=O)O)cc(S(=O)(=O)O)c45)ccc3C)c2)c1 [SURAMIN]	Positive
N=C(N)NCCCCCCCCCCNC(=N)N [SYNTHALIN]	Negative
Nc1c2c(nc3ccccc13)CCCC2 [TACRINE]	Negative
CC/C(=C(\c1ccccc1)c1ccc(OCCN(C)C)cc1)c1ccccc1 [TAMOXIFEN]	Positive
Cn1nnc2c(C(N)=O)ncn2c1=O [TEMOZOLOMIDE]	Negative
CN(C)[C@@H]1C(O)=C(C(N)=O)C(=O)[C@@]2(O)C(O)=C3C(=O)c4c(O)cccc4[C@@](C)(O)[C@H]3C[C@@H]12 [TETRACYCLINE]	Negative
CC(=N)S [THIOACETAMIDE]	Negative
CSc1ccc2c(c1)N(CCC1CCCCN1C)c1ccccc1S2 (centres undefined) [THIORIDAZINE]	Positive
CCN(CC)CCOc1ccc2c(c1)C(=O)c1cc(OCCN(CC)CC)ccc1-2 [TILORONE]	Positive
NC[C@H]1O[C@H](O[C@H]2[C@H](O)[C@@H](O[C@H]3O[C@H](CO)[C@@H](O)[C@H](N)[C@H]3O)[C@H](N)C[C@@H]2N)[C@H](N)C[C@@H]1O [TOBRAMYCIN]	Positive
CC(CN(C)C)CN1c2ccccc2CCc2ccccc21 (centres undefined) [TRIMIPRAMINE]	Positive
CCN(CC)CCOc1ccc(C(O)(Cc2ccc(Cl)cc2)c2ccc(C)cc2)cc1 (centres undefined) [TRIPARANOL]	Positive
CN(C)CCN(Cc1ccccc1)c1ccccn1 [TRIPELENNAMINE]	Positive
CCCC[C@@H]1CC(=O)[C@]2(O)O[C@@H]3[C@@H](NC)[C@@H](O)[C@@H](NC)[C@H](O)[C@H]3O[C@@H]2O1 [TROSPECTOMYCIN]	Positive
CCCC(CCC)C(=O)O [VALPROIC ACID]	Negative
CC[C@]1(O)C[C@@H]2CN(CCc3c([nH]c4ccccc34)[C@@](C(=O)OC)(c3cc4c(cc3OC)N(C)[C@H]3[C@@](O)(C(=O)OC)[C@H](OC(C)=O)[C@]5(CC)C=CCN6CC[C@]43[C@@H]65)C2)C1 [VINBLASTINE]	Negative
Cc1cn([C@H]2C[C@H](N=[N+]=[N-])[C@@H](CO)O2)c(=O)[nH]c1=O [ZIDOVUDINE]	Negative
CC(c1cc2ccccc2s1)N(O)C(N)=O (centres undefined) [ZILEUTON]	Negative
CN(C)C/C=C(/c1ccc(Br)cc1)c1cccnc1 [ZIMELDINE]	Positive
